BindingDB's records for doi:10.1021/bi020016x (Weizmann Institute of Science, 2002)

Assays:
Acetylcholinesterase [1] = target: Acetylcholinesterase (Homo sapiens, UniProt P22303); assay: Enzyme Inhibition Assay; conditions: pH 7.5; 25 °C
Description: (§1) The cholinesterase assays were performed using colorimetric method reported by Ellman. Enzyme activity was determined by measuring the absorbance at 412 nm for 2 min, relative to the drug-free control. Triplicate measurements were carried out at a total of 8 drug concentrations. The IC50 values were determined from a plot of percentage of inhibition vs -log [drug].

Acetylcholinesterase [2] = target: Acetylcholinesterase (Tetronarce californica, UniProt P04058); assay: Enzyme Inhibition Assay; conditions: pH 7.5; 25 °C
Description: as §1

Chain of Acetylcholinesterase (Homo sapiens, UniProt P22303) (P22303 whole entry): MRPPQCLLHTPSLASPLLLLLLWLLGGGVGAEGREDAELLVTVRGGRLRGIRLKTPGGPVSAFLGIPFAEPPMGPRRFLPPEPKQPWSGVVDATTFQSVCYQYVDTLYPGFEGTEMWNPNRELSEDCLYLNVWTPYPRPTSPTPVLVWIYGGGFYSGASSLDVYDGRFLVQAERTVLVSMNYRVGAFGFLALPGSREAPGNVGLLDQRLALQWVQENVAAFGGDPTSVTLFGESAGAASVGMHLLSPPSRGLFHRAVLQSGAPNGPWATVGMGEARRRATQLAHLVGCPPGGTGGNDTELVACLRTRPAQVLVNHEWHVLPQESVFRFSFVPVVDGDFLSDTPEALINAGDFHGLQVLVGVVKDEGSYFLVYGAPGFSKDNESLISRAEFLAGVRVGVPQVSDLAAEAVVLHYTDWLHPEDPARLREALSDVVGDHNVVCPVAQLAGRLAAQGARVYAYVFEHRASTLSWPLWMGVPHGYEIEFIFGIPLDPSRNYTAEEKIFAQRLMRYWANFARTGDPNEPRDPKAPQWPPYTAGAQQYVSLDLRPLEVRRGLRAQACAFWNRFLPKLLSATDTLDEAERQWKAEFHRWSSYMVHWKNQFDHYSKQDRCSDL
Chain of Acetylcholinesterase (Tetronarce californica, UniProt P04058) (P04058 whole entry): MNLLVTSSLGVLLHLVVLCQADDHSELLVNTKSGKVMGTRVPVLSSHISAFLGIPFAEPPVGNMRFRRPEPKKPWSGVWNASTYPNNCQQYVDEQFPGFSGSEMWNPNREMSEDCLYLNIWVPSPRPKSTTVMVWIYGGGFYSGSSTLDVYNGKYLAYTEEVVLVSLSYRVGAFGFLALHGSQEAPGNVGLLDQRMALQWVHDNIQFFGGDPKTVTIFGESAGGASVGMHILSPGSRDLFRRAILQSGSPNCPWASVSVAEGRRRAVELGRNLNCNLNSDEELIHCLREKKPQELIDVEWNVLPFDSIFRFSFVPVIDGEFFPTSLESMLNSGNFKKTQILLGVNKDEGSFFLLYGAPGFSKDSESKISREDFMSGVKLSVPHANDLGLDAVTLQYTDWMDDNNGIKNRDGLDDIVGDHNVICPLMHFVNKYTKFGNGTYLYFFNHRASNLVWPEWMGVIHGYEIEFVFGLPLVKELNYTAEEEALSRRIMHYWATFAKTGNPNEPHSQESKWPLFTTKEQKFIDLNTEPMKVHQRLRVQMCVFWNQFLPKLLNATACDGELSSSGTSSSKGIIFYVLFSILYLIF

## C[C@@H](c1cccc(O)c1)N(C)C [3-[1-(dimethylamino)ethyl]phenol]
Acetylcholinesterase [1]
  Ki: 33 µM
Acetylcholinesterase [2]
  Ki: 0.7 µM
